Here are results for one compound from US20240066008A1, “Device and Antitumor Drug for the Treatment of Neoplastic Cells” (Telea Electronic Engineering SRL, priority 2021, published 2024).

This assay concerns A172 glioblastoma cells. Put plainly: Cell viability, Trypan blue exclusion assay. Format: cell-based. Conditions: Homo sapiens, A 172, TMZ 10 μM for 144 hours in combination with 24-hour QMR treatment (4 MHz current waves), vs TMZ alone, FIG. 12b, read-out: cell viability reduced more than the reduction obtained in cells treated with TMZ drug alone. As to the method: Glioblastoma cell lines A172, T98G and U87MG were used. A172 and T98G cells (Sigma-Aldrich, St. Louis, MO, USA) were cultured in Dulbecco's Modified Eagle's Medium/Nutrient Mixture F-12 (DMEM/F12 GlutaMAX, Gibco, Thermo Fisher Scientific, Waltham, MA, USA) added with 10% foetal bovine serum (FBS) (Qualified Australian, Gibco, Thermo Fisher Scientific) and 1% penicillin/streptomycin (Sigma-Aldrich).
The cell lines were stimulated with QMR using a prototype QMR device from the company Telea (Telea Electronic Engineering, Sandrigo, VI, Italy). The device, suitably adapted for the present in vitro experiments, generated high-frequency sinusoidal alternating electric current waves of 4 MHz with harmonics from 4 to 64 MHz and had the following data: power supply 100÷230 V˜50/60 Hz; maximum output power, 5 W/400Ω.
QMR was applied to the cells using a pair of electrodes that were placed inside a 100 mm Petri dish, at the edge, and connected to the generator device. […] This value was measured by means of three independent measurements with a data-logger probe (iLog, Escort Scunthorpe, UK) placed in the culture medium. […]
For these analyses, the cells were treated for 144 hours with 10-25 μM of TMZ administered at the same time as or after QMR stimulation. […] Cell viability, apoptosis and the cell cycle were assessed after 144 hours. […]

Regarding `Cn1nnc2c(C(N)=O)ncn2c1=O` [TMZ, temozolomide], the cytotoxicity at 10 µM is roughly 12%.
